Assay results as given in the NIST ThermoML archive (doi:10.1021/je100990n).
Where “and” joins values, the source holds several entries; their conditions need not be identical. Identical values can stand only once. ± gives the expanded uncertainty stated by the source.

Conditions: 293.15 K; 101.33 kPa; Liquid; Vibrating wire viscometry

Q: Which viscosity does the source give for `O` [water] here?
A: 1.002 ± 0.0087 mPa·s and 1.005 ± 0.0087 mPa·s and 0.9992 ± 0.0087 mPa·s
